# Columns and labels:
# [1] = tested on: cap-dependent translation (pLuc); assay: Western blot of Fluc reporter protein in pLuc cells; assay type: cell-based, human; conditions: 20 hours, data not shown
# HCV replicon = assay: microbe, parasite or virus in culture; assay type: cell-based, hepatitis C virus; conditions: Hepatitis C virus, read-out: Replicon IC50 μM
smiles,measurement,setting,value
COc1ccc(C[C@H](N)C(=O)N[C@H]2[C@@H](O)[C@H](n3cnc4c(N(C)C)ncnc43)O[C@@H]2CO)cc1 [puromycin],cap-dependent protein production (pLuc) in Western blot,[1],inhibited
"CCn1c(COc2ccccc2)c(C#N)c2ccc(OC)cc21 [Compound 99, 1-ethyl-6-methoxy-2-phenoxymethyl-1H-indole-3-carbonitrile]",IC50,HCV replicon,> 2 µM
same,melting point,,123.4 to 123.8 °C
"CCn1c(-c2ccc(N3CCCS3(=O)=O)cc2)c(C#N)c2ccc(OC(C)C)cc21 [Compound 666, 2-[4-(1,1-dioxo-1λ^6-isothiazolidin-2-yl)phenyl]-1-ethyl-6-isopropoxy-1H-indole-3-carbonitrile]",IC50,HCV replicon,< 0.5 µM
same,melting point,,207 to 209 °C
"CCn1c(C#Cc2ccc(N3CCNC3=O)cc2)c(C#N)c2ccc(OC)cc21 [Compound 166, 1-ethyl-6-methoxy-2-[4-(2-oxo-imidazolidin-1-yl)-phenylethynyl]-1H-indole-3-carbonitrile]",IC50,HCV replicon,< 0.5 µM
same,melting point,,236 to 240 °C
"CCOc1ccc(-c2c(C#N)c3ccc(N)cc3n2CC)cc1 [Compound 833, 6-amino-2-(4-ethoxyphenyl)-1-ethyl-1H-indole-3-carbonitrile]",IC50,HCV replicon,0.5 to 2 µM
same,melting point,,183 to 185 °C
"CCNC(=O)Nc1cccc(C#Cc2c(C#N)c3ccc(OC)cc3n2CC)c1 [Compound 220, 1-[3-(3-cyano-1-ethyl-6-methoxy-1H-indol-2-ylethynyl)phenyl]-3-ethyl urea]",IC50,HCV replicon,0.5 to 2 µM
same,melting point,,219 to 223 °C
"CCn1c(-c2ccc(OCC(=O)N3CC[C@H](O)C3)cc2)c(C#N)c2ccc(OC)cc21 [Compound 285, 1-ethyl-2-{4-[2-(3-hydroxypyrrolidin-1-yl)-2-oxo-ethoxy]phenyl}-6-methoxy-1H-indole-3-carbonitrile]",IC50,HCV replicon,> 2 µM
same,melting point,,185 to 190 °C
"CCn1cc(C#N)c2ccc(OC)cc21 [Compound 5, 1-ethyl-6-methoxy-1H-indole-3-carbonitrile]",IC50,HCV replicon,> 2 µM
same,melting point,,64 to 66 °C
"CCn1c(-c2ccc(NS(C)(=O)=O)cc2)c(C#N)c2ccc(O)cc21 [Compound 189, N-[4-(3-cyano-1-ethyl-6-hydroxy-1H-indol-2-yl)-phenyl]-methanesulfonamide]",IC50,HCV replicon,> 2 µM
same,melting point,,252 to 253 °C
"COc1ccc2c(C#N)c(-c3ccc(N4CCCS4(=O)=O)cc3)n(CC3CC3)c2c1 [Compound 716, 2-[4-(1,1-dioxidoisothiazolidin-2-yl)phenyl]-1-cyclopropylmethyl-6-methoxy-1H-indole-3-carbonitrile]",IC50,HCV replicon,< 0.5 µM
same,melting point,,204 to 205 °C
"CCn1c(-c2ccc3c(c2)N(C)C(=O)CO3)c(C#N)c2ccc(OC)cc21 [Compound 339, 1-ethyl-6-methoxy-2-(4-methyl-3-oxo-3,4,-dihydro-2H-benzo[1,4]oxazin-6-yl)-1H-indole-3-carbonitrile]",IC50,HCV replicon,0.5 to 2 µM
same,melting point,,215 to 219 °C
"N#Cc1c(-n2cccc2)[nH]c2cc([N+](=O)[O-])ccc12 [Compound 7, 6-nitro-2-pyrrol-1-yl-1H-indole-3-carbonitrile]",IC50,HCV replicon,0.5 to 2 µM
same,melting point,,304 to 305 °C
"CCOC(=O)Nc1ccc(-c2c(C#N)c3ccc(OC)cc3n2CC)cc1 [Compound 121, [4-(3-cyano-1-ethyl-6-methoxy-1H-indol-2-yl)-phenyl]-carbamic acid ethyl ester]",IC50,HCV replicon,0.5 to 2 µM
same,melting point,,167 to 169 °C
"CCn1cc(C#N)c2cc(-c3ccsc3)ccc21 [Compound 141, 1-ethyl-5-thiophen-3-yl-1H-indole-3-carbonitrile]",IC50,HCV replicon,> 2 µM
same,melting point,,145 to 146 °C
"CCn1c(-c2ccc(OCCBr)cc2)c(C#N)c2ccc(OC)cc21 [Compound 253, 2-[4-(2-bromoethoxy)-phenyl]-1-ethyl-6-methoxy-1H-indole-3-carbonitrile]",IC50,HCV replicon,0.5 to 2 µM
same,melting point,,121 to 125 °C
"CCn1cc(C#N)c2ccc(C(=O)Nc3ccccc3)cc21 [Compound 15, 3-cyano-1-ethyl-1H-indole-6-carboxylic acid phenylamide]",IC50,HCV replicon,> 2 µM
same,melting point,,225 to 226 °C
"CCn1c(-c2ccc(NC(C)=O)cc2)c(C#N)c2ccc(OC)cc21 [Compound 128, N-[4-(3-Cyano-1-ethyl-6-methoxy-1H-indol-2-yl)-phenyl]-acetamide]",IC50,HCV replicon,> 2 µM
same,melting point,,218 to 220 °C
"CCn1c(-c2cccc(O)c2)c(C#N)c2ccc(OC)cc21 [Compound 288, 1-ethyl-2-(3-hydroxyphenyl)-6-methoxy-1H-indole-3-carbonitrile]",IC50,HCV replicon,> 2 µM
same,melting point,,194 to 199 °C
"CCn1c(-c2ccc3[nH]c(=O)oc3c2)c(C#N)c2ccc(OC)cc21 [Compound 340, 1-ethyl-6-methoxy-2-(2-oxo-2,3-dihydro-benzooxazol-6-yl)-1H-indole-3-carbonitrile]",IC50,HCV replicon,> 2 µM
same,melting point,,243 to 248 °C
"CCn1c(-c2ccc(OCCNC(C)=O)cc2)c(C#N)c2ccc(OC)cc21 [Compound 274, N-{2-[4-(3-cyano-1-ethyl-6-methoxy-1H-indol-2-yl)-phenoxy]-ethyl}acetamide]",IC50,HCV replicon,> 2 µM
same,melting point,,166 to 172 °C
"CCn1c(C#Cc2ccc(NC(=O)NCCCl)cc2)c(C#N)c2ccc(OC)cc21 [Compound 156, 1-(2-chloroethyl)-3-[4-(3-cyano-1-ethyl-6-methoxy-1H-indol-2-ylethynyl)-phenyl]urea]",IC50,HCV replicon,0.5 to 2 µM
same,melting point,,205 to 209 °C
